Three compounds from patent publication US20220299513A1, “IRF2 AS A PROGNOSTIC BIOMARKER AND TARGET FOR AUGMENTING IMMUNOTHERAPY” (University of Massachusetts, priority 2019, published 2022) can be followed below.

Assay [1] has as its system TAP2 mRNA in F221 murine sarcoma cells. Kind of assay: TAP2 mRNA levels by qPCR in drug-treated F221 cells. It is filed as cell-based. The conditions noted are these: Vorinostat 1 uM or 5 uM, Decitabine 5 uM, 24 hrs, vs DMSO control. The protocol:
(§1) FIGS. 13A-B. (A) IRF2 & TAP2 mRNA levels, and MHC I surface protein levels in […] murine sarcoma cells treated with Vorinostat (1 uM or 5 uM), Decitabine (5 uM), or control diluent (DMSO) with no drug; (B) surface expression of MHC I on […] MCA-sarcoma cells treated with Vorinostat (5 uM) and/or Decitabine (5 uM). RNA was extracted from cell lines using the RNeasy kit (Qiagen) or from formalin-fixed paraffin-embedded non-small cell lung cancers using the RNeasy FFPE kit (Qiagen) and reverse transcribed to cDNA using EcoDry pre-mix random hexamers (Clontech). 50 ng cDNA were used per well (done in triplicate) with indicated TaqMan probes (Applied Biosystems), according to the manufacturer's instructions. The TaqMan probes used were as follows: We tested two epigenetic modifiers on an IRF2low, MHC I low murine cancer cell line ([…] MCA-sarcoma). […] murine sarcoma cells were treated with Vorinostat (1 uM or 5 uM), Decitabine (5 uM), or control diluent (DMSO) with no drug for 24 hrs and then assayed for IRF2 and TAP2 mRNA levels by qPCR and MHC I protein levels by flow cytometry.
For orientation: In qPCR the cycle at which signal appears reflects the starting amount.

In assay [2] the test system is surface MHC I (H-2Kb) on F221 MCA-sarcoma cells. Kind of assay: Surface MHC I protein levels by flow cytometry in drug-treated F221 cells. The assay is classed as cell-based. The conditions noted are these: F221 murine sarcoma cells; Vorinostat 1 uM or 5 uM, Decitabine 5 uM; 24 hrs; vs DMSO control. (In general: Flow cytometry measures light scatter and fluorescence of single cells or particles in a stream.)
From the text: Where indicated, mouse cells were blocked with 2.4G2 and stained for surface MHC class I levels with anti-K^b-APC (eBioscience, AF6-88.5.5.3), MHC class II levels with anti-I^A/I^E-PECy7 (BioLegend, M5/114.15.2), PD-L1 levels with anti-PD-L1-PE (BioLegend, 10F.9G2), or with isotype controls (eBioscience mouse IgG2a-APC eBM2a, eBioscience rat IgG2b κ-PE eB149) at 1:200 dilutions.
We tested two epigenetic modifiers on an IRF2low, MHC I low murine cancer cell line (F221 MCA-sarcoma). F221 murine sarcoma cells were treated with Vorinostat (1 uM or 5 uM), Decitabine (5 uM), or control diluent (DMSO) with no drug for 24 hrs and then assayed for IRF2 and TAP2 mRNA levels by qPCR and MHC I protein levels by flow cytometry.
In addition, F221 MCA-sarcoma cells were treated with a combination of Vorinostat (5 uM) and/or Decitabine (5 uM) for 24 hrs and then surface expression of MEW I molecules were quantified by flow cytometry.

Assay [3] relates to IRF2 mRNA in F221 murine sarcoma cells. Kind of assay: IRF2 mRNA levels by qPCR in drug-treated F221 cells. The assay is classed as cell-based. The conditions noted are these: Vorinostat 1 uM or 5 uM, Decitabine 5 uM, 24 hrs, vs DMSO control. The method, then:
as §1

The subject of assay [4] is surface MHC-I on IRF2-KO DC3.2. Kind of assay: Surface MHC-I on IRF2-KO DC3.2 after interferon stimulation (flow cytometry). The assay is classed as cell-based, mouse. The method, then: (§2) FIGS. 5A-E. IRF2-IRF1 balance. (A) Normalized MFI of surface MHC I and PD-L1 levels on the indicated single or double (IRF1+IRF2, double knock out (DKO)) DC3.2 knockout lines after overnight incubation with either media alone or 2 ng/mL IFNγ; bars represent mean+SEM (N≥3); (B) Western blot for IRF1 and IRF2 (and β-actin as loading control) in the DC3.2 knockout lines in the absence or presence of 2 ng/mL IFNγ for the durations indicated; (C) ChIP-qPCR of DC3.2 WT cells stimulated with ±2 ng/mL IFNγ for 2 hrs for TAP2 (top), ERAP1 (middle), or PD-L1 (bottom) DNA with rabbit anti-IRF2 IgG, rabbit anti-IRF1 IgG, or normal rabbit IgG (control). Bars represent mean +SEM fold enrichment (2^^-ΔCt) over the normal rabbit IgG control IP (N=2); (d, e) Heatmap of genes differentially expressed between the DC knockout lines (D) at baseline or (E) after stimulation with ±2 ng/mL IFNγ for 2 hrs. For clarity, only a few genes are shown. Statistical analysis by two-tailed ratio paired t-tests. *p<0.05, **p<0.01, ***p<0.001, ****p<0.0001, ns=not significant.
FIGS. 10A-B. (A) Normalized MFI of surface MHC I and PD-L1 levels on DC3.2 stable knockout lines after overnight incubation with 5,000 U/mL IFNα; bars represent mean+SEM (N=3). Statistical analysis by two-tailed ratio paired t-tests. […]

Assay [5] concerns PD-L1 promoter in DC3.2 WT cells. In words: ChIP-qPCR of IRF1/IRF2 binding to the PD-L1 promoter after IFNγ stimulation. The assay is classed as cell-based, mouse. The conditions noted are these: 2 ng/mL IFNγ for 2 hrs. The method, then:
as §2
It is well-established that IRF1 can promote IFNγ-inducible activation of PD-L1^27,28. […]
ChIP procedure generally followed the Thermo Fisher ChIP protocol. […] Chromatin was sheared by sonication for 20 min and fragment size (˜300 bp) was determined by gel electrophoresis. […]

Assay [6] relates to surface MHC-I on A549 cells. In words: Surface MHC-I on IFNγ-stimulated A549 (flow cytometry). The conditions noted are these: overnight IFNγ stimulation. The assay is classed as cell-based, human. An excerpt:
(§3) FIGS. 6A-J. IRF2 and cancer. (A) Differential IRF2 expression in tumor and normal tissue from patients with the indicated cancer types (TCGA abbreviations), as queried from TIMER^29; (B) IRF2 mRNA expression in patient NSCLC specimens scored as PD-L1 low (1-50%) or high (>50%) by immunohistochemistry. IRF2 mRNA expression was normalized to GAPDH mRNA expression in each lung specimen and then IRF2 expression across specimens was compared by calculating fold changes over the lowest IRF2-expressing specimen, which was set equal to 1. Statistical analysis by Mann-Whitney U test, **p<0.01; (C) TAP2 (top) and ERAP1 (bottom) mRNA correlations with IRF2 mRNA in NSCLC specimens. Linear regression models shown with R^2 for goodness of fit. (D-E) Geometric MFI of surface MHC I (left) and PD-L1 (right) on (D) unstimulated or (E) overnight IFNγ-stimulated A549 lines knocked out for IRF2 (“IRF2 KO”) or control (“WT”) or overexpressing IRF2 or empty vector (EV) as control. Bars represent mean +SEM (N=3). Statistical analysis by two-tailed ratio paired t-tests. *p<0.05, **p<0.01, ***p<0.001; (F) Geometric MFI of surface MHC-I and PD-L1 on unstimulated or IFNγ-stimulated human breast carcinoma (BT20 and MCF7) lines knocked out for IRF2 (“IRF2 KO”) or control (“WT”). […] After 4 hours, specific killing was quantified by flow cytometry. […]

The subject of assay [7] is surface PD-L1 on A549 cells. Kind of assay: Surface PD-L1 on IFNγ-stimulated A549 (flow cytometry). The conditions noted are these: overnight IFNγ stimulation. It is filed as cell-based, human.
From the text: as §3

Take `O=C(CCCCCCC(=O)Nc1ccccc1)NO` [Vorinostat, Suberoylanilide hydroxamic acid]: the “mRNA for IRF2's target gene, TAP2” value in assay [1] was “increased”. The “surface MHC I (H-2Kb) protein levels” value in assay [2] was “increased”. Also, in assay [3], the “expression of IRF2 mRNA” value is recorded as “increased”.
As for IFNα, the “surface MHC-I expression in the IRF2-KO DC3.2” value in assay [4] (overnight incubation with 5,000 U/mL IFNα) is on record as “restored”.
“IFNγ: interferon gamma used to stimulate cells (mouse IFNγ 2 ng/mL for DC3.2)”: in assay [5], the “IRF1 binding to the PD-L1 promoter” value was “increased IRF1 binding” and the “IRF2 binding to the PD-L1 promoter” value is “decreased IRF2 binding”. Also, in assay [4] (overnight incubation with 2 ng/mL IFNγ), the “surface MHC-I expression in the IRF2-KO DC3.2” value was “restored”. The “surface MHC-I expression” value in assay [6] was “augmented”. Moreover, the “surface PD-L1 expression” value in assay [7] was “augmented”.
